From US20070224635A1, “Regulated Stop Codon Readthrough” (Maxygen Holdings, Ltd., priority 2004, published 2007)

How the values were obtained:
[1] = system: UAA stop codon; test: FACS detection of membrane-anchored FVII (FVII-UAA-GPI) in transfected CHO-K1 cells without antibiotic resistance gene; type: cell-based, Chinese hamster (CHO-K1 cells)
Procedure: The resulting PCR product encompassed the CMV promoter, the b-globin intron, the FVII gene, the UAA stop codon, the GPI anchor signal and the b-globin poly-adenylation signal (FIG. 11). The PCR product was purified and subsequently used to transfect CHO-Kcells with Lipofectamine™ 2000 (Invitrogen) as described above. Additionally, a flask containing CHO-K1 cells was incubated with Lipofectamine™ 2000 but without DNA as a negative control. Five hours after transfection, G-418 was added to the two culture flasks at a final concentration of 100 mg/L to promote translational readthrough. […] Labeled retroviral cell lines were analyzed by FACS for membrane-anchored recombinant FVII using a FACSVantage™ (Becton Dickinson) instrument with an excitation wave length of 488 nm and an emission filter of 585 nm.
Because expression of the recombinant FVII protein is correlated with expression of the FVII-GPI protein fusion arising from aminoglycoside-mediated translational readthrough, transgenic cells can be selected by means of FACS based on membrane-anchored FVII detection. […] Approximately 2500 cells from gate R3 of the transfected cells were sorted as a pool and grown for 9 days in the absence of antibiotic, after which translational readthrough was induced by treating the cells with G-418 at 100 mg/L for 2 days. […]

[2] = system: UGA stop codon (UGAC tetranucleotide); test: FACS analysis of membrane-anchored protein C after G-418-induced readthrough, PC-UGAC-GPI construct; type: cell-based, Chinese hamster (CHO-K1 cells); details: with G-418, background in absence of G-418 about 13%
Procedure: (§1) As a control, the retroviral vector pLenti6-PC-GPI was used to transfect HEK293FT cells and produce retrovirus particles. After 48 hours, supernatants containing retroviral particles were harvested, filter-sterilized to remove cell debris, and subsequently used to infect CHO-K1 cells. CHO-K1 cells were selected for resistance to the Blasticidin antibiotic at the concentration of 5 mg/l for 10 days. The resulting pools of Blasticidin-resistant cells were transferred into 6 culture flasks for each cell pool and grown to 25% confluency. To induce translational readthrough, the antibiotic G-418 was added to the culture flasks at final concentrations ranging from 12.5 mg/l to 100 mg/l and flasks were incubated for another 48 hours at 37° C. […] Labeled retroviral cell lines were analyzed by FACS for membrane-anchored recombinant PC using a FACScalibur™ (Becton Dickinson) instrument with an excitation wave length of 488 nm and an emission filter of 585 nm.
(§2) The results shown in FIG. 4 illustrate that both cell lines expressing the PC-UAAC-GPI and PC-UGAC-GPI reporters display PC at the cell surface in the presence of aminoglycoside. […] Furthermore, the amount of recombinant membrane-anchored PC is more abundant for the PC-UGAC-GPI construct than for the PC-UAAC-GPI construct, and this applies to all aminoglycoside concentrations that were assessed.

[3] = system: UAA stop codon (UAAC tetranucleotide); test: FACS analysis of membrane-anchored protein C after G-418-induced readthrough, PC-UAAC-GPI construct; type: cell-based, Chinese hamster (CHO-K1 cells); details: with G-418, background in absence of G-418 about 0.5%
Procedure: as §1, §2

[4] = system: premature UAG mutation; details: cultured mammalian cells; cited from earlier work
[5] = system: nonsense mutation in CFTR; details: cell line carrying a nonsense mutation in CFTR; cited from earlier work

Molecule: CN[C@@H]1[C@@H](O)[C@@H](O[C@@H]2[C@@H](O)[C@H](O[C@H]3O[C@H]([C@@H](C)O)[C@@H](O)[C@H](O)[C@H]3N)[C@@H](N)C[C@H]2N)OC[C@]1(C)O [G-418]
- cells positive for FVII display, second FACS round ([1]; G-418 100 mg/L for 2 days after 9 days growth, non-transfected control 1.1%, FIG. 13): 3.4%
- transfected CHO-K1 cells exhibiting fluorescence signals (gate R3), first FACS round ([1]; G-418 100 mg/L, negative control 0.4%, FIG. 12): 7.1%
- FACS-positive cells (up to) [2]: about 25%
- FACS-positive cells (up to) [3]: about 10%

Molecule: NC[C@@H]1O[C@H](O[C@H]2[C@@H](O)[C@H](O[C@@H]3[C@@H](O)[C@H](N)C[C@H](N)[C@H]3O[C@H]3O[C@H](CO)[C@@H](O)[C@H](O)[C@H]3N)O[C@@H]2CO)[C@H](N)[C@@H](O)[C@@H]1O [paromomycin]
- synthesis of full-size protein from mutant gene [4]: partially restore the synthesis of a full-size protein

Molecule: gentamicin
- expression of CFTR protein [5]: restore the expression
